Publication PMC11059541 (Tuberculosis (Edinburgh, Scotland), 2011)

What was measured:
MtMetAP1a = MtMetAP1a (Mycobacterium tuberculosis, UniProt P9WK21); assay: MetAP enzyme inhibition assay; type: biochemical; details: for selectivity for both MtMetAPs over human MetAPs: MtMetAP1a and MtMetAP1c relative to HsMetAP1 and HsMetAP2, from IC50 values
MtMetAP1c = MtMetAP1c (Mycobacterium tuberculosis, UniProt P9WK19); assay: MetAP enzyme inhibition assay; type: biochemical
M. tuberculosis H37Rv = assay: Minimum Inhibitory Concentration in replicating M. tuberculosis; type: cell-based, Mycobacterium tuberculosis; details: ratio of M.I.C. values
[1] = tested on: aged non-growing M. tuberculosis H37Ra; assay: Activity on aged non-growing M. tuberculosis; details: 2 month old H37Ra culture, acid 7H9 pH5.5, 1% oxygen

Sequence of MtMetAP1a (P9WK21 whole entry): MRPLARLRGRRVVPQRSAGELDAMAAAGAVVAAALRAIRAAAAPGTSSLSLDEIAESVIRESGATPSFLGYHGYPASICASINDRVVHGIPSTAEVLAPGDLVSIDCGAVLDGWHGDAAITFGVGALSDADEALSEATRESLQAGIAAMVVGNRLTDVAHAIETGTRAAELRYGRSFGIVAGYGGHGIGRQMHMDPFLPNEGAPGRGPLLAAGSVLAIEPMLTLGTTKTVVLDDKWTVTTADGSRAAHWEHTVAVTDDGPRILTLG
Sequence of MtMetAP1c (P9WK19 whole entry): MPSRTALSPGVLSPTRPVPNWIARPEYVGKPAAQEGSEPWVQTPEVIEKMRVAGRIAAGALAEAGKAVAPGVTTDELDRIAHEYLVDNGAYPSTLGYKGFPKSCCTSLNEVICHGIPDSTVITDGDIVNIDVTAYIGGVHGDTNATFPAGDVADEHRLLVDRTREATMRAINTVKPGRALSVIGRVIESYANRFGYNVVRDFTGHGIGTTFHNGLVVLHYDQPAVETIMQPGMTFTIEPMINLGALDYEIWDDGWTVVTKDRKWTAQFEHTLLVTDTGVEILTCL

In the case of Oc1c(Br)cc(Cl)c2cccnc12 [CLBQ14], the IC50 (MtMetAP1a) is reported as 5.44 µM, the “selectivity for both MtMetAPs over human MetAPs” value (MtMetAP1a) is reported as “greater than 19 folds” and the IC50 (MtMetAP1c) is reported as 4.92 µM. For the same compound, the “potency in replicating M. tuberculosis culture relative to CQ” value (M. tuberculosis H37Rv) was “two-fold” and the “M.I.C. Aged non-growing M. tuberculosis” value [1] was 0.65 to 1.62 µg/mL.
With Oc1c(I)cc(Cl)c2cccnc12 [Clioquinol (CQ), clioquinol, reference compound] the IC50 (MtMetAP1a) was 9.25 µM, the “selectivity for both MtMetAPs over human MetAPs” value (MtMetAP1a) was “less than 10 folds” and the IC50 (MtMetAP1c) was 11.2 µM.
